# Measured values published in ChEMBL document CHEMBL1156106 (J Med Chem, 2009).
# Experiments:
# [1] = target: Sodium-dependent dopamine transporter (Homo sapiens, UniProt Q01959); test: Displacement of [125I]RTI55 from cloned human DAT expressed in HEK293 cells; assay type: cell-based
# [2] = target: T1, Sodium-dependent serotonin transporter (Homo sapiens, UniProt P31645); test: biochemical; assay type: cell-based, HEK293
# [3] = target: Sodium-dependent noradrenaline transporter (Homo sapiens, UniProt P23975); test: Displacement of [125I]RTI55 from cloned human NET expressed in HEK293 cells; assay type: cell-based
# Mus musculus [4] = test: Antidepressant activity in ip dosed mouse assessed as stimulation of locomotor activity relative to cocaine; assay type: functional
# Rattus norvegicus [5] = test: Effect on behavioural activity in rat assessed as cocaine-induced lever response at 25 mg/kg, po pretreated with cocaine for 360 mins by drug-discrimination studies; assay type: functional
# Rattus norvegicus [6] = test: Effect on behavioural activity in rat assessed as cocaine-induced lever response at 25 mg/kg, po pretreated with cocaine for 90 mins by drug-discrimination studies; assay type: functional
# Rattus norvegicus [7] = test: Effect on behavioural activity in rat assessed as cocaine-induced lever response at 5 mg/kg, po pretreated with cocaine for 360 mins by drug-discrimination studies; assay type: functional
# Rattus norvegicus [8] = test: Effect on behavioural activity in rat assessed as cocaine-induced lever response at 25 mg/kg, ip pretreated with cocaine for 15 mins by drug-discrimination studies; assay type: functional; conditions: route intraperitoneal
# Rattus norvegicus [9] = test: Effect on behavioural activity in rat assessed as cocaine-induced lever response at 10 mg/kg, po pretreated with cocaine for 180 mins by drug-discrimination studies; assay type: functional
# Rattus norvegicus [10] = test: Effect on behavioural activity in rat assessed as cocaine-induced lever response at 5 mg/kg, po pretreated with cocaine for 45 mins by drug-discrimination studies; assay type: functional
# Rattus norvegicus [11] = test: Effect on behavioural activity in rat assessed as cocaine-induced lever response at 25 mg/kg, po pretreated with cocaine for 180 mins by drug-discrimination studies; assay type: functional
# Rattus norvegicus [12] = test: Effect on behavioural activity in rat assessed as cocaine-induced lever response at 2.5 mg/kg, po pretreated with cocaine for 180 mins by drug-discrimination studies; assay type: functional
# Rattus norvegicus [13] = test: Effect on behavioural activity in rat assessed as cocaine-induced lever response at 2.5 mg/kg, ip pretreated with cocaine for 15 mins by drug-discrimination studies; assay type: functional; conditions: route intraperitoneal
# Rattus norvegicus [14] = test: Effect on behavioural activity in rat assessed as cocaine-induced lever response at 10 mg/kg, po pretreated with cocaine for 45 mins by drug-discrimination studies; assay type: functional
# Rattus norvegicus [15] = test: Effect on behavioural activity in rat assessed as cocaine-induced lever response at 50 mg/kg, po pretreated with cocaine for 180 mins by drug-discrimination studies; assay type: functional
# Rattus norvegicus [16] = test: Effect on behavioural activity in rat assessed as cocaine-induced lever response at 10 mg/kg, po pretreated with cocaine for 90 mins by drug-discrimination studies; assay type: functional
# Rattus norvegicus [17] = test: Effect on behavioural activity in rat assessed as cocaine-induced lever response at 10 mg/kg, ip pretreated with cocaine for 15 mins by drug-discrimination studies; assay type: functional; conditions: route intraperitoneal
# Mus musculus [18] = test: Antidepressant activity in ip dosed mouse assessed as stimulation of locomotor activity; assay type: functional
# Mus musculus [19] = test: Antidepressant activity in ip dosed mouse assessed as duration of locomotor activity; assay type: functional
# Rattus norvegicus [20] = test: Effect on behavioural activity in rat assessed as cocaine-induced lever response at 2.5 mg/kg, po pretreated with cocaine for 360 mins by drug-discrimination studies; assay type: functional
# Rattus norvegicus [21] = test: Effect on behavioural activity in rat assessed as cocaine-induced lever response at 5 mg/kg, po pretreated with cocaine for 90 mins by drug-discrimination studies; assay type: functional
# Rattus norvegicus [22] = test: Effect on behavioural activity in ip dosed rat assessed as cocaine-induced lever response pretreated with cocaine by drug-discrimination studies; assay type: functional
# Rattus norvegicus [23] = test: Effect on behavioural activity in rat assessed as cocaine-induced lever response at 5 mg/kg, po pretreated with cocaine for 180 mins by drug-discrimination studies; assay type: functional
# Mus musculus [24] = test: Antidepressant activity in ip dosed mouse assessed as time to reach peak stimulation of locomotor activity; assay type: functional
# Rattus norvegicus [25] = test: Effect on behavioural activity in rat assessed as cocaine-induced lever response at 5 mg/kg, ip pretreated with cocaine for 15 mins by drug-discrimination studies; assay type: functional; conditions: route intraperitoneal
# Rattus norvegicus [26] = test: Effect on behavioural activity in rat assessed as cocaine-induced lever response at 2.5 mg/kg, po pretreated with cocaine for 90 mins by drug-discrimination studies; assay type: functional
# Rattus norvegicus [27] = test: Effect on behavioural activity in rat assessed as cocaine-induced lever response at 50 mg/kg, po pretreated with cocaine for 45 mins by drug-discrimination studies; assay type: functional
# Rattus norvegicus [28] = test: Effect on behavioural activity in rat assessed as cocaine-induced lever response at 10 mg/kg, po pretreated with cocaine for 360 mins by drug-discrimination studies; assay type: functional
# Rattus norvegicus [29] = test: Effect on behavioural activity in rat assessed as cocaine-induced lever response at 50 mg/kg, po pretreated with cocaine for 90 mins by drug-discrimination studies; assay type: functional
# Rattus norvegicus [30] = test: Effect on behavioural activity in po dosed rat assessed as cocaine-induced lever response pretreated with cocaine by drug-discrimination studies; assay type: functional
# Rattus norvegicus [31] = test: Effect on behavioural activity in rat assessed as cocaine-induced lever response at 25 mg/kg, po pretreated with cocaine for 45 mins by drug-discrimination studies; assay type: functional
# Rattus norvegicus [32] = test: Effect on behavioural activity in rat assessed as cocaine-induced lever response at 2.5 mg/kg, po pretreated with cocaine for 45 mins by drug-discrimination studies; assay type: functional
# Rattus norvegicus [33] = test: Effect on behavioural activity in rat assessed as cocaine-induced lever response at 50 mg/kg, po pretreated with cocaine for 360 mins by drug-discrimination studies; assay type: functional
# Rattus norvegicus [34] = test: Effect on behavioural activity in rat assessed as cocaine-induced lever response at 100 mg/kg, po pretreated with cocaine for 90 mins by drug-discrimination studies; assay type: functional
# Rattus norvegicus [35] = test: Effect on behavioural activity in rat assessed as cocaine-induced lever response at 100 mg/kg, po pretreated with cocaine for 45 mins by drug-discrimination studies; assay type: functional
# Rattus norvegicus [36] = test: Effect on behavioural activity in rat assessed as cocaine-induced lever response at 100 mg/kg, po pretreated with cocaine for 180 mins by drug-discrimination studies; assay type: functional
# Rattus norvegicus [37] = test: Effect on behavioural activity in rat assessed as cocaine-induced lever response at 100 mg/kg, po pretreated with cocaine for 360 mins by drug-discrimination studies; assay type: functional
# Rattus norvegicus [38] = test: Effect on behavioural activity in rat assessed as cocaine-induced lever response at 2.5 mg/kg, ip pretreated with cocaine for 30 mins by drug-discrimination studies; assay type: functional; conditions: route intraperitoneal
# Rattus norvegicus [39] = test: Effect on behavioural activity in rat assessed as cocaine-induced lever response at 10 mg/kg, ip pretreated with cocaine for 30 mins by drug-discrimination studies; assay type: functional; conditions: route intraperitoneal
# Rattus norvegicus [40] = test: Effect on behavioural activity in rat assessed as cocaine-induced lever response at 5 mg/kg, ip pretreated with cocaine for 30 mins by drug-discrimination studies; assay type: functional; conditions: route intraperitoneal
# Rattus norvegicus [41] = test: Effect on behavioural activity in rat assessed as cocaine-induced lever response at 25 mg/kg, ip pretreated with cocaine for 30 mins by drug-discrimination studies; assay type: functional; conditions: route intraperitoneal
# Rattus norvegicus [42] = test: Effect on behavioural activity in rat assessed as cocaine-induced lever response at 50 mg/kg, ip pretreated with cocaine for 15 mins by drug-discrimination studies; assay type: functional; conditions: route intraperitoneal
# [43] = target: T1, Sodium-dependent serotonin transporter; test: Inhibition of [3H]serotonin reuptake at human SERT expressed in HEK293 cells; assay type: cell-based
# Sequence of Sodium-dependent noradrenaline transporter (P23975 whole entry): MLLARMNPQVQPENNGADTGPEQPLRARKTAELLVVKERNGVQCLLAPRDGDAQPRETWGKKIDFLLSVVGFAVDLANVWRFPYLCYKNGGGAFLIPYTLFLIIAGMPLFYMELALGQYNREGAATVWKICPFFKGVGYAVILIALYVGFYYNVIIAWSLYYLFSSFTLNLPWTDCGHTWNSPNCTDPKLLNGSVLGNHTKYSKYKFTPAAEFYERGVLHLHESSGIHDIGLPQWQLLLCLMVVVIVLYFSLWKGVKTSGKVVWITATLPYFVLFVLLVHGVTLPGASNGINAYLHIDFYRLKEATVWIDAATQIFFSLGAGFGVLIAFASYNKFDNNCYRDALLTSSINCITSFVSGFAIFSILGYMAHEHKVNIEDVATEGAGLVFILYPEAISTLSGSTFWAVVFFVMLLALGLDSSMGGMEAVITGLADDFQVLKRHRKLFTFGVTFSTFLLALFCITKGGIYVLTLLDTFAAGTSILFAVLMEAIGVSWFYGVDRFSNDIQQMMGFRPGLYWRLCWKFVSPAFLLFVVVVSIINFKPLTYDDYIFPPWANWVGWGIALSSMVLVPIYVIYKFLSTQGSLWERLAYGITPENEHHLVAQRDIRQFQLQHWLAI
# Sequence of Sodium-dependent dopamine transporter (Q01959 whole entry): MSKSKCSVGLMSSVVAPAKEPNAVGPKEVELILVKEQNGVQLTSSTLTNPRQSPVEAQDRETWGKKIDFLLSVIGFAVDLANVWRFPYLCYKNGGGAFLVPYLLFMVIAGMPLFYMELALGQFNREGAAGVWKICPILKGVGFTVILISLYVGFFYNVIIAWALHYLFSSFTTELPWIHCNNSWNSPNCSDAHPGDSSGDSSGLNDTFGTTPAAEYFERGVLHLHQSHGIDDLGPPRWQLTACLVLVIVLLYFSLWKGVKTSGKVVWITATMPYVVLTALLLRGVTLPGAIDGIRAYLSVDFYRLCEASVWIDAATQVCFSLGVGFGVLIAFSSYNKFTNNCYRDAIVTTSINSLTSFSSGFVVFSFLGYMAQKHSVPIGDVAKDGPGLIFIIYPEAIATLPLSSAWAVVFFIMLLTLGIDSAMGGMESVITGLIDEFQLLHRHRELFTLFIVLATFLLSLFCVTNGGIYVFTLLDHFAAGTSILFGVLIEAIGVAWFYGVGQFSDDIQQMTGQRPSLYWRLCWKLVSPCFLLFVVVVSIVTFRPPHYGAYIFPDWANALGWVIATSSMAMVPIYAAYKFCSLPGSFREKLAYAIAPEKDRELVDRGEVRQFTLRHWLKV
# T1 sequence (P31645 whole entry): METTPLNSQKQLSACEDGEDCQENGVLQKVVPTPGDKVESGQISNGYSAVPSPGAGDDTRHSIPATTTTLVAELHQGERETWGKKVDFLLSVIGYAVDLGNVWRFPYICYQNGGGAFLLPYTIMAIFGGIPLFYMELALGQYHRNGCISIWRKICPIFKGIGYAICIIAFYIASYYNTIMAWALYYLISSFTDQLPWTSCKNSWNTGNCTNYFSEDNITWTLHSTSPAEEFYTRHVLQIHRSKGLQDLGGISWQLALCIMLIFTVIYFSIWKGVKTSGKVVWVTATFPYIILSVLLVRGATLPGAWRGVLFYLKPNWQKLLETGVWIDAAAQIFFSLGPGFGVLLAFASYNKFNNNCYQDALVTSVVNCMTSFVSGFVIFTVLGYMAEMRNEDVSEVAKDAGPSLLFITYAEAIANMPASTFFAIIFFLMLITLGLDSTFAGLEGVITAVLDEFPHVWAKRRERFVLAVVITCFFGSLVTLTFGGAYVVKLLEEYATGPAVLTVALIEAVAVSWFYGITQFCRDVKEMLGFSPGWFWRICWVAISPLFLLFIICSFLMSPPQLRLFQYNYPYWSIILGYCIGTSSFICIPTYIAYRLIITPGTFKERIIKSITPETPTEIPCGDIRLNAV
smiles,measurement,setting,value
CC1C(=O)c2cc(Cl)ccc2CN1C(C)(C)C (centres undefined),Ki,[1],> 10 µM
same,Ki,[2],> 10 µM
same,Ki,[3],> 10 µM
CC(NC(C)(C)C)C(=O)c1ccccc1 (centres undefined),Activity,Mus musculus [4],95%
same,Activity,Rattus norvegicus [5],34%
same,Activity,Rattus norvegicus [6],33%
same,Activity,Rattus norvegicus [7],0%
same,Ki,[2],> 10 µM
same,Activity,Rattus norvegicus [8],83.4%
same,Activity,Rattus norvegicus [9],3%
same,Activity,Rattus norvegicus [10],0%
same,Activity,Rattus norvegicus [11],20%
same,Activity,Rattus norvegicus [12],0%
same,Activity,Rattus norvegicus [13],16%
same,Activity,Rattus norvegicus [14],0%
same,Activity,Rattus norvegicus [15],50%
same,Activity,Rattus norvegicus [16],0%
same,Activity,Rattus norvegicus [17],83.3%
same,ED50,Mus musculus [18],11.2 mg/kg
same,Time,Mus musculus [19],120 min
same,Activity,Rattus norvegicus [20],0%
same,Activity,Rattus norvegicus [21],0%
same,ED50,Rattus norvegicus [22],1 mg/kg
same,Activity,Rattus norvegicus [23],33%
same,Time to peak locomotor stimulation,Mus musculus [24],0 min
same,Activity,Rattus norvegicus [25],32.8%
same,Activity,Rattus norvegicus [26],1%
same,Activity,Rattus norvegicus [27],83%
same,Activity,Rattus norvegicus [28],0%
same,Activity,Rattus norvegicus [29],33%
same,ED50,Rattus norvegicus [30],25.2 mg/kg
same,Activity,Rattus norvegicus [31],51%
same,Activity,Rattus norvegicus [32],6%
same,Activity,Rattus norvegicus [33],4%
CC(NC(C)(C)C)C(=O)c1cccc(F)c1 (centres undefined),Activity,Mus musculus [4],80%
same,Activity,Rattus norvegicus [5],0%
same,Activity,Rattus norvegicus [6],16%
same,Activity,Rattus norvegicus [7],0%
same,Ki,[2],> 10 µM
same,Activity,Rattus norvegicus [8],100%
same,Ki,[3],> 10 µM
same,Activity,Rattus norvegicus [9],33%
same,Activity,Rattus norvegicus [10],17%
same,Activity,Rattus norvegicus [11],0%
same,Activity,Rattus norvegicus [13],17.6%
same,Activity,Rattus norvegicus [14],17%
same,Activity,Rattus norvegicus [15],18%
same,Activity,Rattus norvegicus [34],75%
same,Activity,Rattus norvegicus [16],0%
same,Activity,Rattus norvegicus [17],50.2%
same,ED50,Mus musculus [18],17.5 mg/kg
same,Time,Mus musculus [19],150 min
same,Activity,Rattus norvegicus [21],0%
same,ED50,Rattus norvegicus [22],11.6 mg/kg
same,Activity,Rattus norvegicus [35],95%
same,Activity,Rattus norvegicus [23],0%
same,Time to peak locomotor stimulation,Mus musculus [24],0 min
same,Activity,Rattus norvegicus [25],0%
same,Activity,Rattus norvegicus [27],67%
same,Activity,Rattus norvegicus [29],33%
same,ED50,Rattus norvegicus [30],25.3 mg/kg
same,Activity,Rattus norvegicus [36],83%
same,Activity,Rattus norvegicus [31],49%
same,Activity,Rattus norvegicus [33],0%
same,Activity,Rattus norvegicus [37],50%
CCCCC(NC(C)(C)C)C(=O)c1cccc(Cl)c1 (centres undefined),Activity,Mus musculus [4],136%
same,Activity,Rattus norvegicus [38],0%
same,Activity,Rattus norvegicus [5],0%
same,Activity,Rattus norvegicus [6],0%
same,Activity,Rattus norvegicus [39],66.6%
same,Activity,Rattus norvegicus [7],0%
same,Ki,[2],> 10 µM
same,Activity,Rattus norvegicus [9],29%
same,Activity,Rattus norvegicus [10],17%
same,Activity,Rattus norvegicus [11],0%
same,Activity,Rattus norvegicus [40],17.2%
same,Activity,Rattus norvegicus [14],0%
same,Activity,Rattus norvegicus [15],17%
same,Activity,Rattus norvegicus [16],0%
same,ED50,Mus musculus [18],10.2 mg/kg
same,Time,Mus musculus [19],40 min
same,Activity,Rattus norvegicus [21],0%
same,ED50,Rattus norvegicus [22],10 mg/kg
same,Activity,Rattus norvegicus [23],26%
same,Time to peak locomotor stimulation,Mus musculus [24],0 min
same,Activity,Rattus norvegicus [27],83%
same,Activity,Rattus norvegicus [28],0%
same,Activity,Rattus norvegicus [29],17%
same,ED50,Rattus norvegicus [30],46.9 mg/kg
same,Activity,Rattus norvegicus [31],0%
same,Activity,Rattus norvegicus [33],0%
same,Activity,Rattus norvegicus [41],100%
CC(NC(C)(C)C)C(=O)c1cc(Cl)cc(Cl)c1 (centres undefined),Ki,[1],> 10 µM
same,Ki,[2],> 10 µM
same,Ki,[3],> 10 µM
CC(C(=O)c1cccc(Cl)c1)N(C)C(C)(C)C (centres undefined),Activity,Mus musculus [4],95%
same,Ki,[2],> 10 µM
same,Activity,Rattus norvegicus [8],75%
same,Ki,[3],> 10 µM
same,Activity,Rattus norvegicus [17],49.4%
same,ED50,Mus musculus [18],11.7 mg/kg
same,Time,Mus musculus [19],200 min
same,Time to peak locomotor stimulation,Mus musculus [24],80 min
same,Activity,Rattus norvegicus [42],66.7%
CCN(CC)C(C)C(=O)c1cccc(Cl)c1 (centres undefined),Activity,Mus musculus [4],90%
same,Ki,[2],> 10 µM
same,Activity,Rattus norvegicus [8],74.8%
same,Activity,Rattus norvegicus [13],0%
same,Activity,Rattus norvegicus [17],98.6%
same,Time,Mus musculus [19],130 min
same,ED50,Rattus norvegicus [22],3.2 mg/kg
same,Time to peak locomotor stimulation,Mus musculus [24],20 min
same,Activity,Rattus norvegicus [25],16.7%
CC(NC(C)(C)C)C(O)c1ccccc1 (racemic),Activity,Mus musculus [4],41%
same,Ki,[1],> 10 µM
same,Ki,[2],4 µM
same,Ki,[3],> 10 µM
same,Time,Mus musculus [19],390 min
same,Time to peak locomotor stimulation,Mus musculus [24],150 min
same,IC50,[43],1.24 µM
COC(=O)[C@H]1[C@@H](OC(=O)c2ccccc2)C[C@@H]2CC[C@H]1N2C [COCAINE],ED50,Mus musculus [18],7.8 mg/kg
same,Time,Mus musculus [19],40 min
same,ED50,Rattus norvegicus [22],5.9 mg/kg
same,Time to peak locomotor stimulation,Mus musculus [24],0 min
